Reference: PubChem BioAssay AID192 (DTP/NCI, 2004)
Where “and” joins values, the source holds several entries; their conditions need not be identical. Equal entries are not always repeated. Inconclusive results and toxic doses are left out.

System: BDF1 mice, B16 melanoma ip, median survival T/C
Experiment: NCI In Vivo Anticancer Drug Screen. Data for tumor model B16 Melanoma (intraperitoneal) in B6D2F1 (BDF1) mice
Settings: endpoint: median survival time, higher = longer survival
How it was run: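 Transplantable tumor model; survival or tumor size measured; reported as T/C, treated over vehicle control.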

[1] = dose: 6.25 mg/kg/injection, schedule: Q01DX009 (ip), vehicle: saline
[2] = dose: 25.0 mg/kg/injection, schedule: Q01DX009 (ip), vehicle: saline
[3] = dose: 25.0 mg/kg/injection, schedule: Q04DX003 (ip), vehicle: saline
[4] = dose: 50.0 mg/kg/injection, schedule: Q04DX003 (ip), vehicle: saline
[5] = dose: 50.0 mg/kg/injection, schedule: Q01DX009 (ip), vehicle: saline
[6] = dose: 100.0 mg/kg/injection, schedule: Q01DX009 (ip), vehicle: saline
[7] = dose: 100.0 mg/kg/injection, schedule: Q01DX009 (ip), vehicle: saline with Tween-80
[8] = dose: 200.0 mg/kg/injection, schedule: Q01DX009 (ip), vehicle: saline with Tween-80
[9] = dose: 100.0 mg/kg/injection, schedule: Q01DX009 (ip), vehicle: Klucel (hydroxypropylcellulose) (HPC)
[10] = dose: 200.0 mg/kg/injection, schedule: Q01DX009 (ip), vehicle: Klucel (hydroxypropylcellulose) (HPC)
[11] = dose: 400.0 mg/kg/injection, schedule: Q01DX009 (ip), vehicle: Klucel (hydroxypropylcellulose) (HPC)
[12] = dose: 1.56 mg/kg/injection, schedule: Q01DX009 (ip), vehicle: Klucel (hydroxypropylcellulose) (HPC)

O=c1[nH]cc(F)c(=O)[nH]1
T/C (dose: 0.5 mg/kg/injection, schedule: Q01DX009 (ip), vehicle: saline): 107 % of control | T/C (dose: 1.25 mg/kg/injection, schedule: Q03HX024 (ip), vehicle: saline): 110 % of control | T/C (dose: 2.0 mg/kg/injection, schedule: Q01DX009 (ip), vehicle: saline): 118 % of control | T/C (dose: 2.5 mg/kg/injection, schedule: Q01DX017 (ip), vehicle: saline): 104 % of control | T/C (dose: 2.5 mg/kg/injection, schedule: Q03HX024 (ip), vehicle: saline): 112 % of control | T/C (dose: 3.12 mg/kg/injection, schedule: Q01DX009 (ip), vehicle: saline): 102 % of control | T/C (dose: 3.8 mg/kg/injection, schedule: Q04DX003 (ip), vehicle: saline): 116 % of control | T/C (dose: 5.0 mg/kg/injection, schedule: Q01DX001 (ip), vehicle: saline): 105 % of control | T/C (dose: 5.0 mg/kg/injection, schedule: Q01DX009 (ip), vehicle: saline with Tween-80): 104 % of control | T/C (dose: 5.0 mg/kg/injection, schedule: Q01DX017 (ip), vehicle: saline): 107 % of control | T/C (dose: 5.0 mg/kg/injection, schedule: Q05DX010 (ip), vehicle: saline): 115 % of control | T/C [1]: 91 % of control | T/C (dose: 7.0 mg/kg/injection, schedule: Q01DX009 (ip), vehicle: saline): 117 % of control | T/C (dose: 7.5 mg/kg/injection, schedule: Q01DX009 (ip), vehicle: saline): 117 % of control | T/C (dose: 7.5 mg/kg/injection, schedule: Q04DX003 (ip), vehicle: saline): 116 % of control | T/C (dose: 7.8 mg/kg/injection, schedule: Q04DX003 (ip), vehicle: saline): 104 % of control | T/C (dose: 10.0 mg/kg/injection, schedule: Q01DX001 (ip), vehicle: saline): 107 % of control | T/C (dose: 10.0 mg/kg/injection, schedule: Q01DX009 (ip), vehicle: saline with Tween-80): 104 % of control and 111 % of control and 114 % of control | T/C (dose: 10.0 mg/kg/injection, schedule: Q05DX010 (ip), vehicle: saline): 120 % of control | T/C (dose: 12.0 mg/kg/injection, schedule: Q01DX009 (ip), vehicle: saline): 115 % of control | T/C (dose: 12.5 mg/kg/injection, schedule: Q01DX009 (ip), vehicle: saline): 123 % of control | T/C (dose: 12.5 mg/kg/injection, schedule: Q04DX005 (ip), vehicle: saline): 107 % of control | T/C (dose: 13.0 mg/kg/injection, schedule: Q04DX003 (ip), vehicle: saline): 108 % of control | T/C (dose: 15.0 mg/kg/injection, schedule: Q01DX009 (ip), vehicle: saline): 121 % of control and 122 % of control | T/C (dose: 15.0 mg/kg/injection, schedule: Q04DX003 (ip), vehicle: saline): 122 % of control | T/C (dose: 20.0 mg/kg/injection, schedule: Q01DX001 (ip), vehicle: saline): 115 % of control | T/C (dose: 20.0 mg/kg/injection, schedule: Q01DX009 (ip), vehicle: saline with Tween-80): 116 % of control and 119 % of control | T/C (dose: 20.0 mg/kg/injection, schedule: Q01DX017 (ip), vehicle: saline): 161 % of control and 169 % of control | T/C (dose: 21.6 mg/kg/injection, schedule: Q04DX003 (ip), vehicle: saline): 103 % of control | T/C [2]: 119 % of control | T/C [3]: 122 % of control | T/C (dose: 25.0 mg/kg/injection, schedule: Q04DX005 (ip), vehicle: saline): 117 % of control | T/C (dose: 30.0 mg/kg/injection, schedule: Q01DX009 (ip), vehicle: saline): 124 % of control | T/C (dose: 30.0 mg/kg/injection, schedule: Q04DX003 (ip), vehicle: saline): 117 % of control and 122 % of control | T/C (dose: 36.0 mg/kg/injection, schedule: Q04DX003 (ip), vehicle: saline): 104 % of control | T/C (dose: 40.0 mg/kg/injection, schedule: Q01DX001 (ip), vehicle: saline): 120 % of control | T/C (dose: 40.0 mg/kg/injection, schedule: Q01DX009 (ip), vehicle: saline with Tween-80): 88 % of control and 97 % of control | T/C (dose: 50.0 mg/kg/injection, schedule: Q01DX001 (ip), vehicle: saline): 110 % of control | T/C [4]: 120 % of control | T/C (dose: 50.0 mg/kg/injection, schedule: Q04DX005 (ip), vehicle: saline): 115 % of control | T/C (dose: 60.0 mg/kg/injection, schedule: Q01DX009 (ip), vehicle: saline): 39 % of control | T/C (dose: 60.0 mg/kg/injection, schedule: Q04DX003 (ip), vehicle: saline): 52 % of control and 119 % of control | T/C (dose: 90.0 mg/kg/injection, schedule: Q04DX003 (ip), vehicle: saline): 123 % of control | T/C (dose: 100.0 mg/kg/injection, schedule: Q01DX001 (ip), vehicle: saline): 110 % of control | T/C (dose: 120.0 mg/kg/injection, schedule: Q04DX003 (ip), vehicle: saline): 93 % of control | T/C (dose: 200.0 mg/kg/injection, schedule: Q01DX001 (ip), vehicle: saline): 110 % of control | T/C (dose: 240.0 mg/kg/injection, schedule: Q04DX003 (ip), vehicle: saline): 73 % of control | T/C (dose: 480.0 mg/kg/injection, schedule: Q04DX003 (ip), vehicle: saline): 47 % of control

C=CCOCC(O)CN(C)C1CCCCC1 (centres undefined)
T/C (dose: 12.5 mg/kg/injection, schedule: Q04DX003 (ip), vehicle: saline): 121 % of control | T/C [3]: 100 % of control | T/C [4]: 100 % of control and 104 % of control

Cc1ccn2ncnc2c1
T/C [5]: 89 % of control | T/C [6]: 86 % of control

CCNc1nc(NC(C)C)nc(SC)n1
T/C (dose: 50.0 mg/kg/injection, schedule: Q01DX009 (ip), vehicle: saline with Tween-80): 117 % of control | T/C [7]: 106 % of control | T/C [8]: 104 % of control

COC(=O)c1cc([N+](=O)[O-])cc2ccccc12
T/C (dose: 50.0 mg/kg/injection, schedule: Q01DX009 (ip), vehicle: Klucel (hydroxypropylcellulose) (HPC)): 100 % of control | T/C [9]: 97 % of control | T/C [10]: 94 % of control

COc1ccc(CCN2CSC(=S)N(CCc3ccc(OC)c(OC)c3)C2)cc1OC
T/C [9]: 106 % of control | T/C [10]: 95 % of control | T/C [11]: 95 % of control

N#Cc1ccc(Br)cc1[N+](=O)[O-]
T/C (dose: 0.39 mg/kg/injection, schedule: Q01DX009 (ip), vehicle: Klucel (hydroxypropylcellulose) (HPC)): 93 % of control | T/C (dose: 0.78 mg/kg/injection, schedule: Q01DX009 (ip), vehicle: Klucel (hydroxypropylcellulose) (HPC)): 93 % of control | T/C [12]: 106 % of control

ClCCCCCCBr
T/C (dose: 75.0 mg/kg/injection, schedule: Q01DX009 (ip), vehicle: Klucel (hydroxypropylcellulose) (HPC)): 122 % of control | T/C (dose: 150.0 mg/kg/injection, schedule: Q01DX009 (ip), vehicle: Klucel (hydroxypropylcellulose) (HPC)): 122 % of control | T/C (dose: 300.0 mg/kg/injection, schedule: Q01DX009 (ip), vehicle: Klucel (hydroxypropylcellulose) (HPC)): 105 % of control

COC12C(COC(=O)NCCO)C3=C(C(=O)C(C)=C(N)C3=O)N1CC1NC12 (centres undefined)
T/C [12]: 98 % of control | T/C (dose: 3.12 mg/kg/injection, schedule: Q01DX009 (ip), vehicle: Klucel (hydroxypropylcellulose) (HPC)): 116 % of control and 120 % of control and 124 % of control | T/C [1]: 119 % of control | T/C (dose: 25.0 mg/kg/injection, schedule: Q01DX009 (ip), vehicle: Klucel (hydroxypropylcellulose) (HPC)): 88 % of control and 180 % of control and 209 % of control | T/C [2]: 94 % of control

C[CH2][Sn]([F])([CH2]C)[CH2]C
T/C (dose: 0.37 mg/kg/injection, schedule: Q01DX009 (ip), vehicle: saline with Tween-80): 104 % of control | T/C (dose: 0.75 mg/kg/injection, schedule: Q01DX009 (ip), vehicle: saline with Tween-80): 109 % of control | T/C (dose: 1.5 mg/kg/injection, schedule: Q01DX009 (ip), vehicle: saline with Tween-80): 102 % of control | T/C (dose: 3.0 mg/kg/injection, schedule: Q01DX009 (ip), vehicle: saline with Tween-80): 94 % of control

CCOC(=O)c1ccc(=O)[nH]c1.[Ag]
T/C (dose: 3.13 mg/kg/injection, schedule: Q01DX009 (ip), vehicle: Klucel (hydroxypropylcellulose) (HPC)): 108 % of control | T/C (dose: 6.25 mg/kg/injection, schedule: Q01DX009 (ip), vehicle: Klucel (hydroxypropylcellulose) (HPC)): 100 % of control | T/C (dose: 12.5 mg/kg/injection, schedule: Q01DX009 (ip), vehicle: Klucel (hydroxypropylcellulose) (HPC)): 91 % of control

OC1CCC(O)C1(Cl)Cl (centres undefined)
T/C [2]: 98 % of control | T/C [5]: 109 % of control | T/C [6]: 91 % of control

CCOc1cc([N+](=O)[O-])c(OCC)cc1Cl
T/C [7]: 94 % of control | T/C [8]: 97 % of control | T/C (dose: 400.0 mg/kg/injection, schedule: Q01DX009 (ip), vehicle: saline with Tween-80): 96 % of control

CC1NC(=O)NC1=O (centres undefined)
T/C [9]: 90 % of control | T/C [10]: 100 % of control | T/C [11]: 102 % of control
